# ChEMBL document CHEMBL1201862, “PubChem BioAssay data set” (2004)
#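 Method: 48-hour compound exposure of cells in 96-well plates, five concentrations, linear interpolation of endpoints. GI50: concentration for 50% inhibition of growth.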 Activity calls are given as the source filed them. Cut-off read from the data, not from the text of the source: active = GI50 up to about 1.1 µM and inactive = higher.
# Tests used:
# Experiment in all cases: DTP human tumour cell line panel, 48 h
# [1] = test system: 786-0
# [2] = test system: A498
# [3] = test system: A549
# [4] = test system: ACHN
# [5] = test system: CAKI-1
# [6] = test system: CCRF-CEM
# [7] = test system: COLO 205
# [8] = test system: DMS-114
# [9] = test system: DMS-273
# [10] = test system: EKVX
# [11] = test system: HCC 2998
# [12] = test system: HCT-116
# [13] = test system: HCT-15
# [14] = test system: HL-60
# [15] = test system: HOP-62
# [16] = test system: HOP-92
# [17] = test system: HT-29
# [18] = test system: IGROV-1
# [19] = test system: K562
# [20] = test system: KM-20L2
# [21] = test system: KM12
# [22] = test system: LOX IMVI
# [23] = test system: LXFL 529
# [24] = test system: M14
# [25] = test system: M19-MEL
# [26] = test system: MOLT-4
# [27] = test system: Malme-3M
# [28] = test system: NCI-H226
# [29] = test system: NCI-H23
# [30] = test system: NCI-H460
# [31] = test system: NCI-H522
# [32] = test system: OVCAR-3
# [33] = test system: OVCAR-4
# [34] = test system: OVCAR-5
# [35] = test system: OVCAR-8
# [36] = test system: RPMI-8226
# [37] = test system: RXF 393
# [38] = test system: SF-268
# [39] = test system: SF-295
# [40] = test system: SF-539
# [41] = test system: SK-MEL-28
# [42] = test system: SK-MEL-2
# [43] = test system: SK-MEL-5
# [44] = test system: SK-OV-3
# [45] = test system: SN12C
# [46] = test system: SNB-19
# [47] = test system: SNB-75
# [48] = test system: SNB-78
# [49] = test system: SR
# [50] = test system: SW-620
# [51] = test system: TK-10
# [52] = test system: U-251
# [53] = test system: UACC-257
# [54] = test system: UACC-62
# [55] = test system: UO-31
# [56] = test system: XF498
# [57] = test system: DLD-1
# [58] = test system: HOP-18
smiles,measurement,setting,value
CCOc1cc2c(C(=O)CC)c(O)ccc2o1,GI50,[1],> 100 µM (inactive)
same,GI50,[2],> 52.7 µM (inactive)
same,GI50,[3],> 100 µM (inactive)
same,GI50,[4],> 100 µM (inactive)
same,GI50,[5],> 100 µM (inactive)
same,GI50,[6],24.9 µM (inactive)
same,GI50,[7],> 67.9 µM (inactive)
same,GI50,[8],> 54.5 µM (inactive)
same,GI50,[9],> 100 µM (inactive)
same,GI50,[10],> 100 µM (inactive)
same,GI50,[11],> 100 µM (inactive)
same,GI50,[12],> 48 µM (inactive)
same,GI50,[13],> 100 µM
same,GI50,[14],12.9 µM (inactive)
same,GI50,[15],> 100 µM (inactive)
same,GI50,[16],> 100 µM (inactive)
same,GI50,[17],39 µM (inactive)
same,GI50,[18],> 100 µM (inactive)
same,GI50,[19],28.8 µM (inactive)
same,GI50,[20],> 100 µM (inactive)
same,GI50,[21],> 100 µM (inactive)
same,GI50,[22],> 100 µM (inactive)
same,GI50,[23],64.9 µM (inactive)
same,GI50,[24],> 55 µM (inactive)
same,GI50,[25],31.1 µM (inactive)
same,GI50,[26],58.1 µM (inactive)
same,GI50,[27],> 100 µM (inactive)
same,GI50,[28],> 100 µM (inactive)
same,GI50,[29],> 100 µM (inactive)
same,GI50,[30],> 100 µM (inactive)
same,GI50,[31],> 100 µM (inactive)
same,GI50,[32],> 100 µM (inactive)
same,GI50,[33],> 40.8 µM (inactive)
same,GI50,[34],> 100 µM (inactive)
same,GI50,[35],> 79.6 µM (inactive)
same,GI50,[36],> 58.1 µM (inactive)
same,GI50,[37],> 45.1 µM (inactive)
same,GI50,[38],> 100 µM (inactive)
same,GI50,[39],> 100 µM (inactive)
same,GI50,[40],> 100 µM (inactive)
same,GI50,[41],> 35.3 µM (inactive)
same,GI50,[42],> 100 µM (inactive)
same,GI50,[43],> 39.3 µM (inactive)
same,GI50,[44],> 48.1 µM (inactive)
same,GI50,[45],> 100 µM (inactive)
same,GI50,[46],> 100 µM (inactive)
same,GI50,[47],> 91 µM (inactive)
same,GI50,[48],> 96.6 µM (inactive)
same,GI50,[49],33.7 µM (inactive)
same,GI50,[50],57.3 µM (inactive)
same,GI50,[51],> 79.8 µM (inactive)
same,GI50,[52],> 100 µM (inactive)
same,GI50,[53],> 100 µM (inactive)
same,GI50,[54],> 37.6 µM (inactive)
same,GI50,[55],> 100 µM (inactive)
same,GI50,[56],> 49.9 µM (inactive)
N#CCCN(c1ccc(/C=N/c2nc(-c3ccccc3)cs2)cc1)S(=O)(=O)c1ccccc1,GI50,[1],> 100 µM (inactive)
same,GI50,[2],75.9 µM (inactive)
same,GI50,[3],76.2 µM (inactive)
same,GI50,[5],25.8 µM (inactive)
same,GI50,[6],48.5 µM (inactive)
same,GI50,[7],> 100 µM (inactive)
same,GI50,[57],96.8 µM (inactive)
same,GI50,[8],39.4 µM (inactive)
same,GI50,[9],> 100 µM (inactive)
same,GI50,[10],37.5 µM (inactive)
same,GI50,[11],64.9 µM (inactive)
same,GI50,[12],75.3 µM (inactive)
same,GI50,[13],> 100 µM
same,GI50,[14],30.8 µM (inactive)
same,GI50,[15],96.6 µM (inactive)
same,GI50,[17],> 100 µM (inactive)
same,GI50,[18],> 100 µM (inactive)
same,GI50,[19],35.6 µM (inactive)
same,GI50,[20],> 100 µM (inactive)
same,GI50,[21],> 100 µM (inactive)
same,GI50,[22],> 100 µM (inactive)
same,GI50,[23],56.9 µM (inactive)
same,GI50,[24],81.7 µM (inactive)
same,GI50,[25],> 100 µM (inactive)
same,GI50,[26],44.7 µM (inactive)
same,GI50,[27],> 100 µM (inactive)
same,GI50,[29],78.9 µM (inactive)
same,GI50,[31],31.6 µM (inactive)
same,GI50,[32],39.8 µM (inactive)
same,GI50,[33],64.7 µM (inactive)
same,GI50,[34],> 100 µM (inactive)
same,GI50,[35],> 100 µM (inactive)
same,GI50,[36],44.4 µM (inactive)
same,GI50,[38],56.1 µM (inactive)
same,GI50,[39],46.2 µM (inactive)
same,GI50,[40],> 100 µM (inactive)
same,GI50,[41],85.3 µM (inactive)
same,GI50,[42],86.9 µM (inactive)
same,GI50,[43],35 µM (inactive)
same,GI50,[44],> 100 µM (inactive)
same,GI50,[45],92.5 µM (inactive)
same,GI50,[46],> 100 µM (inactive)
same,GI50,[47],19.2 µM (inactive)
same,GI50,[48],> 100 µM (inactive)
same,GI50,[50],83.8 µM (inactive)
same,GI50,[51],86.5 µM (inactive)
same,GI50,[52],> 100 µM (inactive)
same,GI50,[53],96.4 µM (inactive)
same,GI50,[54],59.2 µM (inactive)
same,GI50,[55],23.6 µM (inactive)
same,GI50,[56],> 100 µM (inactive)
COc1ccc(OC)c(NC(=O)C2=C(C)NC(C)=C(C(=O)Nc3cc(OC)ccc3OC)C2c2ccccc2)c1,GI50,[1],> 100 µM (inactive)
same,GI50,[2],> 100 µM (inactive)
same,GI50,[3],85.1 µM (inactive)
same,GI50,[4],30 µM (inactive)
same,GI50,[5],> 100 µM (inactive)
same,GI50,[6],48.4 µM (inactive)
same,GI50,[7],> 100 µM (inactive)
same,GI50,[57],21.7 µM (inactive)
same,GI50,[8],96.2 µM (inactive)
same,GI50,[9],> 100 µM (inactive)
same,GI50,[10],> 100 µM (inactive)
same,GI50,[11],> 100 µM (inactive)
same,GI50,[12],45.5 µM (inactive)
same,GI50,[13],> 100 µM
same,GI50,[58],1.04 µM (active)
same,GI50,[15],> 100 µM (inactive)
same,GI50,[16],6.41 µM (inactive)
same,GI50,[17],> 100 µM (inactive)
same,GI50,[18],> 100 µM (inactive)
same,GI50,[19],83 µM (inactive)
same,GI50,[20],86.5 µM (inactive)
same,GI50,[21],91.4 µM (inactive)
same,GI50,[22],> 100 µM (inactive)
same,GI50,[23],> 100 µM (inactive)
same,GI50,[24],> 100 µM (inactive)
same,GI50,[25],> 100 µM (inactive)
same,GI50,[26],6.5 µM (inactive)
same,GI50,[27],> 100 µM (inactive)
same,GI50,[29],> 100 µM (inactive)
same,GI50,[30],> 100 µM (inactive)
same,GI50,[31],> 100 µM (inactive)
same,GI50,[32],> 100 µM (inactive)
same,GI50,[33],> 100 µM (inactive)
same,GI50,[34],> 100 µM (inactive)
same,GI50,[35],> 100 µM (inactive)
same,GI50,[36],4.91 µM (inactive)
same,GI50,[37],> 100 µM (inactive)
same,GI50,[38],63.7 µM (inactive)
same,GI50,[39],80.4 µM (inactive)
same,GI50,[40],> 100 µM (inactive)
same,GI50,[41],22.6 µM (inactive)
same,GI50,[42],> 100 µM (inactive)
same,GI50,[43],51.3 µM (inactive)
same,GI50,[44],> 100 µM (inactive)
same,GI50,[45],> 100 µM (inactive)
same,GI50,[46],> 100 µM (inactive)
same,GI50,[47],22.8 µM (inactive)
same,GI50,[48],> 100 µM (inactive)
same,GI50,[50],> 100 µM (inactive)
same,GI50,[51],> 100 µM (inactive)
same,GI50,[52],> 100 µM (inactive)
same,GI50,[53],> 100 µM (inactive)
same,GI50,[54],> 100 µM (inactive)
same,GI50,[55],35.6 µM (inactive)
